The source of these data is US11192859B2, “Quinoline compounds as modulators of RAGE activity and uses thereof” (NEW YORK UNIVERSITY, priority 2016, dated 2021).

Experiment [1] has as its target ctRAGE (Homo sapiens (Human), UniProt Q15109). The experiment in a line: Fluorescence binding assay (native tryptophan fluorescence titration). More on the design: key to Fluorescent Binding Assay, Kd (nM): ***: No binding. Particulars: 10 nM ctRAGE, pH 7.0, 5% DMSO; for Kd: read-out: Fluorescent Binding Assay, Kd. The protocol:
Native tryptophan fluorescence experiments were conducted using a Horiba Jobin Yvon Fluorolog spectrofluorometer. 1 mM of compound was dissolved in 10 mM phosphate buffer [pH 7.0] and 50% DMSO. ctRAGE was bacterially expressed and purified as described^1. 10 nM ctRAGE solution was individually titrated from 0.1 nM-100 μM with the compounds in 100 μL of 10 mM phosphate buffer [pH 7.0] and 5% DMSO. The excitation and emission wavelengths were 280 nm and 352 nm, respectively. Dissociation constants, Kd, were estimated from the changes in peak fluorescence intensities as a function of the free compound concentration by using Prism 5 software (GraphPad). Data were fit to the equation, (F−F0)/Fmax=[compound]/(Kd+[compound]) where F is the fluorescence intensity at a given compound concentration, F0 is the fluorescence intensity of the blank, and Fmax is the maximum fluorescence intensity.

The subject of experiment [2] is Murine vascular smooth muscle cells (SMCs). The experiment in a line: Smooth muscle cell migration assay (wounding assay), RAGE ligand CML-AGE. Type of experiment: cell-based. More on the design: key to SMC migration Assay, IC50 (nM): ****: No inhibition or bad fit or inhibition out of range. The note with it: CML-AGE 10 μg/ml, 7 h; for IC50: Mus musculus, read-out: SMC migration Assay, IC50. The protocol: FIG. 4 depicts effects of compounds on RAGE ligand-stimulated migration of murine aortic smooth muscle cells (SMCs). Migration of SMCs after incubation with the indicated RAGE inhibitor compounds or the parent molecule (“C12”) quinolone from the Chem-Bridge library was assessed. SMCs were grown to confluence and serum-starved overnight. The following morning, serum free media was removed and compounds were added (1 μM). Immediately following the addition of compounds, the monolayer was wounded using a p200 pipette tip and allowed to incubate for 1.5 h. Following this incubation, compounds were removed and fresh media containing RAGE ligand, CML-AGE (10 μg/ml), was added for 7 h. All images were measured at TO and T7 h and an area ingrowth of effective migrating cells was calculated. Each compound was tested in three independent wells and each well was photographed in 3 separate locations for a total of 9 images used in assessing area ingrowth. Error bars represent SEM. * indicates p<0.05 comparing CML-AGE vs. CML-AGE and compound treatment and # indicates p<0.001 comparing CML-AGE vs. serum free medium (SFM) vehicle. Note that SFM is the vehicle into which the RAGE ligand, CML-AGE, is added for testing the effect of RAGE ligand.
Murine vascular smooth muscle cells (SMCs) were cultured from the aortas of 10-week old male mice using a modification of the procedure of Travo and Barret^17. SMCs were cultured following an explant protocol in accordance with institutional guidelines. Wild-type murine aortic vascular SMCs were isolated and used between passages 8 to 12. Migration in response to the RAGE ligand CML-AGE (CML, 10 μg/ml) or a general effector, not a RAGE ligand, PDGF-BB, 10 ng/ml (R&D systems, Minneapolis, Minn., USA) was assessed with a wounding assay. Cells were grown to confluence in 12-well plates and starved overnight. The following morning, serum free media was removed and compounds were added. Immediately following the addition of compounds, the monolayer was wounded using a p200 pipette tip and the compounds were allowed to incubate for 1.5 h. Following this incubation, all compounds were removed and fresh media containing RAGE ligand or general effector, PDGF-BB, was added for 7 h. Cells were maintained at 37° C. and 5% CO2. Images were obtained at TO and T7. Each image was measured and an area ingrowth of effective migrating cells was calculated. The SMC migration assay data for representative compounds, Compounds 229 and 247, is depicted in FIGS. 5a and 5b, respectively.

Chain of ctRAGE (Q15109 364-404): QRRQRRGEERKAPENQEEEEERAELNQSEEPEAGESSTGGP

In general, Kd refers to a measure of binding affinity in units of concentration. For the molecule `CC(=O)Nc1ccc(-c2cc(CN3CCOCC3)c3ccccc3n2)cc1F` [Compound 214, N-(2-fluoro-4-(4-(morpholinomethyl)quinolin-2-yl)phenyl)acetamide], in experiment [1], the Kd was 0.034 µM. In addition, the IC50 in experiment [2] was 0.004 µM.

Take `CC(=O)Nc1ccc(-c2cc(CN3CCOCC3)c3ccccc3n2)cc1Cl` [Compound 215, N-(2-chloro-4-(4-(morpholinomethyl)quinolin-2-yl)phenyl)acetamide]: the Kd in experiment [1] was 0.027 µM. In experiment [2], the IC50 stood at 0.46 µM.

On to `COc1cc(-c2cc(CN3CCOCC3)c3ccccc3n2)ccc1NC(C)=O` [Compound 216, N-(2-methoxy-4-(4-(morpholinomethyl)quinolin-2-yl)phenyl)acetamide], for which the “Fluorescent Binding Assay, Kd (nM)” value in experiment [1] is given as “***”. For the same molecule, the “SMC migration Assay, IC50 (nM)” value in experiment [2] was “****”.

Consider `CC(=O)Nc1ccc(-c2cc(CN3CCOCC3)c3ccccc3n2)cc1O` [Compound 217, N-(2-hydroxy-4-(4-(morpholinomethyl)quinolin-2-yl)phenyl)acetamide], for which, in experiment [1], the “Fluorescent Binding Assay, Kd (nM)” value is recorded as “***”. In experiment [2], the “SMC migration Assay, IC50 (nM)” value is reported as “****”.

As to `CC(=O)Nc1ccc(-c2cc(CN3CCOCC3)c3ccccc3n2)cc1C#N` [Compound 218, N-(2-cyano-4-(4-(morpholinomethyl)quinolin-2-yl)phenyl)acetamide], the Kd in experiment [1] came out at 0.08 µM. Further, in experiment [2], the IC50 was found to be 0.133 µM.

With `O=C(CO)Nc1ccc(-c2cc(CN3CCOCC3)c3ccccc3n2)cc1` [Compound 219, 2-hydroxy-N-(4-(4-(morpholinomethyl)quinolin-2-yl)phenyl)acetamide], the Kd in experiment [1] turned out to be 0.089 µM. Further, in experiment [2], the “SMC migration Assay, IC50 (nM)” value is given as “****”.

Regarding `COCC(=O)Nc1ccc(-c2cc(CN3CCOCC3)c3ccccc3n2)cc1` [Compound 220, 2-methoxy-N-(4-(4-(morpholinomethyl)quinolin-2-yl)phenyl)acetamide], the Kd in experiment [1] was 0.022 µM. Moreover, the IC50 in experiment [2] was found to be 0.3 µM.

Regarding `NCC(=O)Nc1ccc(-c2cc(CN3CCOCC3)c3ccccc3n2)cc1` [Compound 221, 2-amino-N-(4-(4-(morpholinomethyl)quinolin-2-yl)phenyl)acetamide], the Kd in experiment [1] worked out at 0.034 µM. Besides, the IC50 in experiment [2] is 5 µM.

On to `CC(=O)NCC(=O)Nc1ccc(-c2cc(CN3CCOCC3)c3ccccc3n2)cc1` [Compound 222, 2-acetamido-N-(4-(4-(morpholinomethyl)quinolin-2-yl)phenyl)acetamide], for which the Kd in experiment [1] came to 0.032 µM. The IC50 in experiment [2] worked out at 3.2 µM.

In the case of `CCC(=O)Nc1ccc(-c2cc(CN3CCOCC3)c3ccccc3n2)cc1` [Compound 223, N-(4-(4-(morpholinomethyl)quinolin-2-yl)phenyl)propionamide], the Kd in experiment [1] is 0.072 µM.

In the case of `CC(C)C(=O)Nc1ccc(-c2cc(CN3CCOCC3)c3ccccc3n2)cc1` [Compound 224, N-(4-(4-(morpholinomethyl)quinolin-2-yl)phenyl)isobutyramide], the Kd in experiment [1] was found to be 0.032 µM. Also, the IC50 in experiment [2] is 0.099 µM.

For the molecule `CC(=O)Nc1ccc(-c2cc(CN3CCOCC3)c3ccc(F)cc3n2)cc1` [Compound 225, N-(4-(7-fluoro-4-(morpholinomethyl)quinolin-2-yl)phenyl)acetamide], the Kd in experiment [1] was 0.122 µM. In experiment [2], the IC50 worked out at 0.044 µM.

For `CC(=O)Nc1ccc(-c2cc(CN3CCOCC3)c3ccc(Cl)cc3n2)cc1` [Compound 226, N-(4-(7-chloro-4-(morpholinomethyl)quinolin-2-yl)phenyl)acetamide], the Kd in experiment [1] stood at 0.025 µM. Besides, in experiment [2], the IC50 is 0.003 µM.

Consider `CC(=O)Nc1ccc(-c2cc(CN3CCOCC3)c3ccc(C)cc3n2)cc1` [Compound 227, N-(4-(7-methyl-4-(morpholinomethyl)quinolin-2-yl)phenyl)acetamide], for which the Kd in experiment [1] amounted to 0.01 µM. Also, the “SMC migration Assay, IC50 (nM)” value in experiment [2] was “****”.

As to `COc1ccc2c(CN3CCOCC3)cc(-c3ccc(NC(C)=O)cc3)nc2c1` [Compound 228, N-(4-(7-methoxy-4-(morpholinomethyl)quinolin-2-yl)phenyl)acetamide], the Kd in experiment [1] came out at 0.122 µM. For the same molecule, the IC50 in experiment [2] amounted to 0.01 µM.

On to `CC(=O)Nc1ccc(-c2cc(CN3CCOCC3)c3ccc(C#N)cc3n2)cc1` [Compound 229, N-(4-(7-cyano-4-(morpholinomethyl)quinolin-2-yl)phenyl)acetamide], for which, in experiment [1], the Kd stood at 0.003 µM. Further, the IC50 in experiment [2] came to 0.0002 µM.

`CC(=O)Nc1ccc(-c2cc(CN3CCOCC3)c3ccc(C(N)=O)cc3n2)cc1` [Compound 230, 2-(4-acetamidophenyl)-4-(morpholinomethyl)quinoline-7-carboxamide]: the “Fluorescent Binding Assay, Kd (nM)” value in experiment [1] is on record as “***”. Further, the “SMC migration Assay, IC50 (nM)” value in experiment [2] is “****”.

For `CC(=O)Nc1ccc(-c2cc(CNCCO)c3ccccc3n2)cc1` [Compound 231, N-(4-(4-(((2-hydroxyethyl)amino)methyl)quinolin-2-yl)phenyl)acetamide], the Kd in experiment [1] stood at 0.047 µM. In experiment [2], the IC50 is 0.018 µM.

Regarding `CC(=O)Nc1ccc(-c2cc(CN(C)CCO)c3ccccc3n2)cc1` [Compound 232, N-(4-(4-(((2-hydroxyethyl)(methyl)amino)methyl)quinolin-2-yl)phenyl)acetamide], the “Fluorescent Binding Assay, Kd (nM)” value in experiment [1] is “***”. Besides, the “SMC migration Assay, IC50 (nM)” value in experiment [2] is listed as “****”.

Turning to `COCCNCc1cc(-c2ccc(NC(C)=O)cc2)nc2ccccc12` [Compound 233, N-(4-(4-(((2-methoxyethyl)amino)methyl)quinolin-2-yl)phenyl)acetamide], the “SMC migration Assay, IC50 (nM)” value in experiment [2] was “****”.

On to `COCCN(C)Cc1cc(-c2ccc(NC(C)=O)cc2)nc2ccccc12` [Compound 234, N-(4-(4-(((2-methoxyethyl)(methyl)amino)methyl)quinolin-2-yl)phenyl)acetamide], for which, in experiment [1], the Kd worked out at 0.012 µM. In experiment [2], the IC50 amounted to 0.0004 µM.

Regarding `COc1ccc2c(CN3CCOCC3)cc(-c3ccc(NC(C)=O)c(Cl)c3)nc2c1` [Compound 257, N-(2-chloro-4-(7-methoxy-4-(morpholinomethyl)quinolin-2-yl)phenyl)acetamide], the IC50 in experiment [2] was 1.5 µM.

With `COc1ccc2c(CN3CCOCC3)cc(-c3ccc(NC(C)=O)c(C#N)c3)nc2c1` [Compound 258, N-(2-cyano-4-(7-methoxy-4-(morpholinomethyl)quinolin-2-yl)phenyl)acetamide], the IC50 in experiment [2] was 0.323 µM.

Consider `CC(=O)Nc1ccc(-c2cc(CN3CCOCC3)c3ccc(C#N)cc3n2)cc1F` [Compound 259, N-(4-(7-cyano-4-(morpholinomethyl)quinolin-2-yl)-2-fluorophenyl)acetamide], for which, in experiment [2], the “SMC migration Assay, IC50 (nM)” value is recorded as “****”.

On to `CC(=O)Nc1ccc(-c2cc(CN3CCOCC3)c3ccc(C#N)cc3n2)cc1Cl` [Compound 260, N-(2-chloro-4-(7-cyano-4-(morpholinomethyl)quinolin-2-yl)phenyl)acetamide], for which the IC50 in experiment [2] amounted to 0.014 µM.

Consider `CC(=O)Nc1ccc(-c2cc(CN3CCOCC3)c3ccc(C#N)cc3n2)cc1C#N` [Compound 261, N-(2-cyano-4-(7-cyano-4-(morpholinomethyl)quinolin-2-yl)phenyl)acetamide], for which the IC50 in experiment [2] was 1.4 µM.

In the case of `CCOc1ccc2c(CN3CCOCC3)cc(-c3ccc(NC(C)=O)c(F)c3)nc2c1` [Compound 262, N-(4-(7-ethoxy-4-(morpholinomethyl)quinolin-2-yl)-2-fluorophenyl)acetamide], in experiment [2], the IC50 was determined as 2.9 µM.
